This note sets out measurements from patent US20080032945A1, “2'-MODIFIED OLIGONUCLEOTIDES” (Isis Pharmaceuticals, Inc., priority 1992, published 2008).

Data set [1] has as its system complementary RNA strand (the sense strand). Description: Thermal melting analysis of 2′-deoxy-2′-fluoro modified oligonucleotides (hybridization thermodynamics). It counts as binding.
The subject of the next data set is PKC-α mRNA. Description: Northern blot analysis of PKC-α mRNA levels. It counts as cell-based, human. The note with it: result in words. On the procedure:
Oligonucleotides having SEQ ID NO:4 were synthesized as uniformly phosphorothioate chimeric oligonucleotides having a centered deoxy gap of varying lengths flanked by 2′-O-methylated regions. These oligonucleotides (500 nM concentration) were tested for effects on PKC-A mRNA levels by Northern blot analysis.
Additional phosphorothioate oligonucleotides targeted to the human PKC-α 3′ untranslated region were designed and synthesized.

The next data set concerns ras mRNA. Briefly: Northern blot analysis of ras expression in T24 cells. It counts as cell-based, human. On the procedure: The human urinary bladder cancer cell line T24 was obtained from the American Type Culture Collection (Rockville Md.). Cells were grown in McCoy's 5A medium with L-glutamine (GIBCO-BRL, Gaithersburg, Md.), supplemented with 10% heat-inactivated fetal calf serum and 50 U/ml each of penicillin and streptomycin. Cells were seeded on 100 mm plates. When they reached 70% confluency, they were treated with oligonucleotide. Plates were washed with 10 ml prewarmed PBS and 5 ml of OptiMEM (GIBCO) reduced-serum medium containing 2.5 μl DOTMA. Oligonucleotide was then added to the desired concentration. After 4 hours of treatment, the medium was replaced with McCoy's medium. Cells were harvested 48 hours after oligonucleotide treatment and RNA was isolated using a standard CsCl purification method. [Kingston in Current Protocols in Molecular Biology, F. M. Ausubel, R. Brent, R. E. Kingston, D. D. Moore, J. A. Smith, J. G. Seidman and K. Strahl, Eds., John Wiley and Sons, New York.] The human epithelioid carcinoma cell line HeLa 229 was obtained from the American Type Culture Collection (Bethesda, Md.). HeLa cells were maintained as monolayers on 6-well plates in Dulbecco's Modified Eagle's medium (DMEM) supplemented with 10% fetal bovine serum and 100 U/ml penicillin. Treatment with oligonucleotide and isolation of RNA were essentially as described above for T24 cells.
Northern hybridization: 10 μg of each RNA was electrophoresed on a 1.2% agarose/formaldehyde gel and transferred overnight to GeneBind 45 nylon membrane (Pharmacia LKB, Piscataway, N.J.) using standard methods. [Kingston in Current Protocols in Molecular Biology, F. M. Ausubel, R. Brent, R. E. Kingston, D. D. Moore, J. A. Smith, J. G. Seidman and K. Strahl, Eds., John Wiley and Sons, New York.] RNA was UV-crosslinked to the membrane. Double-stranded ^32P-labeled probes were synthesized using the Prime a Gene labeling kit (Promega, Madison Wis.). The ras probe was a SalI-NheI fragment of a cDNA clone of the activated (mutant) H-ras mRNA having a GGC-to-GTC mutation at codon-12. The control probe was G3PDH. Blots were prehybridized for 15 minutes at 68° C. with the QuickHyb hybridization solution (Stratagene, La Jolla, Calif.). The heat-denatured radioactive probe (2.5×10^6 counts/2 ml hybridization solution) mixed with 100 μl of 10 mg/ml salmon sperm DNA was added and the membrane was hybridized for 1 hour at 68° C. The blots were washed twice for 15 minutes at room temperature in 2×SSC/0.1% SDS and once for 30 minutes at 60° C. with 0.1×SSC/0.1% SDS. Blots were autoradiographed and the intensity of signal was quantitated using an ImageQuant PhosphorImager (Molecular Dynamics, Sunnyvale, Calif.). Northern blots were first hybridized with the ras probe, then stripped by boiling for 15 minutes in 0.1×SSC/0.1% SDS and rehybridized with the control G3PDH probe to check for correct sample loading.

Data set [2] has as its system 25mer oligoribonucleotide complement. Description: Melting curves with 25mer oligoribonucleotide complement. It counts as binding. The note with it: 17mer hybridized with 25mer oligoribonucleotide complement. The text has this:
Other sugar modifications: The effects of other 2′ sugar modifications besides 2′-O-methyl on antisense activity in chimeric oligonucleotides have been examined. These modifications are listed in Table 4, along with the Tm values obtained when 17mer oligonucleotides having 2′-modified nucleotides flanking a 7-base deoxy gap were hybridized with a 25mer oligoribonucleotide complement as described in Example 25. […] As alkyl length increased, Tm decreased.
Absorbance vs. temperature curves were measured at 260 nm using a Gilford 260 spectrophotometer interfaced to an IBM PC computer and a Gilford Response II spectrophotometer. The buffer contained 100 mM Na^+, 10 mM phosphate and 0.1 mM EDTA, pH 7. Oligonucleotide concentration was 4 μM each strand determined from the absorbance at 85° C. and extinction coefficients calculated according to Puglisi and Tinoco [Methods in Enzymol., 180, 304 (1989). Tm values, free energies of duplex formation and association constants were obtained from fits of data to a two state model with linear sloping baselines. [Petersheim and Turner, Biochemistry, 22, 256 (1983). Reported parameters are averages of at least three experiments. For some oligonucleotides, free energies of duplex formation were also obtained from plots of Tm^−1 vs log10 (concentration). Borer et al., J. Mol. Biol., 86, 843 (1974).

The test system of data set [3] is ras-luciferase (codon-12 point mutation of activated H-ras). Briefly: ras-luciferase reporter gene system. The format is cell-based, human. The conditions noted are these: for effect on ras expression: chimeric backbone-modified oligonucleotides, result in words; for inhibition of ras-luciferase activity: cells expressing the mutant form of ras-luciferase, dose response, FIGS. 1 and 2. (In a reporter assay the amount or activity of a reporter protein is the signal.)

The mark [4] stands for this setting: duplex with complementary RNA, first Tm column.

Where two headings read alike, the source gives them in different places. [OPr] = 2'-O-propyl ribonucleoside; d = 2'-deoxy (DNA)

For orientation: Tm means the temperature at the midpoint of the melting transition. As for “CUC GUA CCU UCC GGU CC: SEQ ID NO: 28; adenosine, thymidine and cytidine nucleotides modified to contain 2′-deoxy-2′-fluoro substituents (CUCGUACCUUCCGGUCC; 2'-fluoro on A, U/T, C, G sugar and linkages not given here, further chemistry not given here)”, the Tm in data set [1] (setting [4]) amounted to 81.6 °C.
Turning to “AsAsAsAsCsGsTsCsAsGsCsCsAsTsGsGsTsCsCsC (AAAACGTCAGCCATGGTCCC; listed as DNA, chemistry not fully specified) [Oligonucleotide 3522, reference compound]”, the “effect on PKC-α mRNA levels” value with PKC-α mRNA was “reduction of PKC-α mRNA”.
As for “AsAoAoAoCoGsTsCsAsGsCsCsAsTsGoGoToCoCsC (AAAACGTCAGCCATGGTCCC; linkages s1 o4 s9 o4 s1 (s phosphorothioate, o phosphodiester), sugars by position and methylation of C not given here; further chemistry not fully specified) [Oligonucleotide 7294]”, the “effect on PKC-α mRNA levels” value in the data set on PKC-α mRNA (listed as 7294) is listed as “more active than their 2′-β-methyl counterparts”.
As for “AsAsAsAsCsGsTsCsAsGsCsCsAsTsGsGsTsCsCsC (AAAACGTCAGCCATGGTCCC; all phosphorothioate, sugars by position and methylation of C not given here; further chemistry not fully specified) [Oligonucleotide 5352]”, in the data set on PKC-α mRNA, the “effect on PKC-α mRNA levels” value is given as “most active”.
As for “CTTATATTCCGTCATCGCTC (chemistry not given here) [Compound 2502, phosphorothioate oligonucleotide complementary to the ras AUG region, 20 deoxy, reference compound]”, in the data set with ras mRNA, the “inhibition of ras expression / decrease of ras mRNA” value is recorded as 26%.
Take “CTTATATTCCGTCATCGCTC (chemistry not given here) [Oligonucleotide 4998, chimeric phosphorothioate, 7-base deoxy gap flanked by 2′-O-methyl regions, AUG target]”: the “inhibition of ras expression / decrease of ras mRNA” value in the data set on ras mRNA (listed as 4998) is 84%.
For “O-Propyl: 17-mer CCACACCGACGGCGCCC (SEQ ID NO: 1), 2′-O-propyl nucleotides flanking a 7-base deoxy gap (sugars from the 5' end [OPr]5 d7 [OPr]5, backbone and methylation of C not given here)”, the Tm in data set [2] was found to be 70.4 °C.
As for “CsCsAsCoAoCoCoGoAoCoGoGoCoGsCsCsC [ISIS 4241]”, the “effect on ras expression” value in data set [3] is “completely inactive”.
Consider “TCCGTCATCGCTCCTCAGGG [Oligonucleotide 5122]”, for which the “inhibition of ras expression / decrease of ras mRNA” value in the data set with ras mRNA (listed as 5122) is reported as 15%.
As to “TsTsCs TsCsGs CsTsGs GsTsGs AsGsTs TsTsC (TTCTCGCTGGTGAGTTTC; all phosphorothioate, sugars by position and methylation of C not given here; further chemistry not fully specified) [Oligonucleotide 6632]”, the “effect on PKC-α mRNA levels” value with PKC-α mRNA is recorded as “most active”.
For “C^MC^MA^M C^MA^MC^M CdGdAd CdGdG^M C^MG^MC^M C^MC^M [Oligonucleotide 3980]”, the “inhibition of ras-luciferase activity” value in data set [3] was “next greatest inhibition”. Also, in the data set with ras mRNA, the “inhibition of ras expression / decrease of ras mRNA” value is recorded as 61%.
As for “oligonucleotide with the 2′-O-propyl diester flanking regions: SEQ ID NO:1, phosphorothioate backbone in the 7-base deoxy gap only, phosphodiester 2′-O-propyl flanking regions (CCACACCGACGGCGCCC; 2'-O-propyl phosphodiester flanks, 7-deoxy phosphorothioate gap, exact positions not given here)”, the “effect on ras expression” value in data set [3] was “able to inhibit ras expression”.
In the case of ps(CGA CTA TGC AAG TAC), the “Tm” value in data set [1] (change in Tm relative to the unmodified oligonucleotide) is −11.2 °C; in data set [1] (setting [4]) it was 33.9 °C.
Consider “C^MC^MA^M C^MAdCd CdGdAd CdGdGd CdG^MC^M C^MC^M [Oligonucleotide 3984]”, for which, in data set [3], the “inhibition of ras-luciferase activity” value is on record as “greater inhibition of ras-luciferase activity than did oligonucleotide 2570”. In addition, in the data set on ras mRNA, the “inhibition of ras expression / decrease of ras mRNA” value was 81%.
For the substance “TsCsTs CsGsCs TsGsGs TsGsAs GsTsTs TsC (TCTCGCTGGTGAGTTTC; all phosphorothioate, sugars by position and methylation of C not given here; further chemistry not fully specified) [Oligonucleotide 7082]”, the “effect on PKC-α mRNA levels” value in the data set on PKC-α mRNA is on record as “most active”.
As to “AoAoAoAoCoGsTsCsAsGsCsCsAsTsGoGoToCoCoC (AAAACGTCAGCCATGGTCCC; linkages o5 s9 o5 (s phosphorothioate, o phosphodiester), sugars by position and methylation of C not given here; further chemistry not fully specified) [Oligonucleotide 7273]”, the “effect on PKC-α mRNA levels” value with PKC-α mRNA is “more active than their 2′-β-methyl counterparts”.
With “CsCsAsCsAsCsCsGsAoCsGsGsCsGsCsCsC [ISIS 4248]”, the “effect on ras expression” value in data set [3] was “just as active as a full P═S molecule”.
On to “CTC GTA CCT TCC GGT CC: unmodified phosphodiester, SEQ ID NO: 22 (CTCGTACCTTCCGGTCC; unmodified DNA)”, for which the Tm in data set [1] (setting [4]) was 61.6 °C.
Turning to “C^MC^MA^M C^MA^MC^M C^MG^MAd C^MG^MG^M C^MG^MC^M C^MC^M [Oligonucleotide 3975]”, in data set [3], the “inhibition of ras-luciferase activity” value is “neither of the oligonucleotides having either the one or the three 2′-deoxy-erythro-pentofuranosyl nucleotide subsequences showed significant activity”.
As for “C^MC^MA^M C^MA^MC^M C^MGdAd CdG^MG^M C^MG^MC^M C^MC^M [Oligonucleotide 3979]”, in data set [3], the “inhibition of ras-luciferase activity” value is reported as “measurable activity for the three nucleotide subsequence oligonucleotide 3979 at the highest concentration dose”.
For the substance ps(CGA CUA UGC AAG UAC), in data set [1] (setting [4]), the Tm was found to be 60.9 °C.
“AsAoAoAoCoGsTsCsAsGsCsCsAsTsGoGoToCoCsC (AAAACGTCAGCCATGGTCCC; linkages s1 o4 s9 o4 s1 (s phosphorothioate, o phosphodiester), sugars by position and methylation of C not given here; further chemistry not fully specified) [Oligonucleotide 7008]”: the “effect on PKC-α mRNA levels” value in the data set with PKC-α mRNA (listed as 7008) is on record as “reduction of PKC-α mRNA”.
